Source: patent US6423752B1, “Indane dimer compounds with smooth muscle relaxing and/or mast cell stabilizing and/or anti-inflammatory activity” (Venantius Limited, priority 1995, dated 2002)
Where a name gives a salt, the structure may show the parent alone. Read-outs that look alike come from different tables or passages of the source.

Experiments:
[1] = test system: trachea; assay: Smooth muscle effects: spontaneous tone of tracheal sections; set-up: species or system Guinea pigs; details: Cavia porcellus, guinea pig trachea, percentage relaxation
Method: (§1) The compounds were assessed for their ability to stabilize mast cell membranes in vitro. Mast cells treated with the compounds and un-treated mast cells were stimulated to release histamine. A reduction in histamine release by the treated cells compared to the untreated cells indicates stabilisation of the membrane. The compounds were assessed for their ability to relax smooth muscle in vitro. Intestinal smooth muscle was stimulated to contract, using calcium chloride and subsequently treated with the compounds, relaxation of the contraction was measured for each compound. The effects of the compounds were also studied on relaxation of guinea-pig tracheal muscle. In the rat paw oedema test, the drugs were administered systemically prior to inducing inflammation by the injection of carageenan below the plantar aponeurosis of the hind paw. The volume of the paw was determined both before and after treatment as an index of oedema. In the mouse ear oedema test, the drugs were administered topically prior to inducing inflammation by the topical application of arachidonic acid. The width of the ear was determined both before and after treatment as an index of oedema.
(§2) Guinea pigs (350 g approx.), of either sex, were killed in an atmosphere of saturated CO2. The abdomen was opened by a mid-line incision and the small intestine was removed. The trachea was removed and sectioned between the cartilage rings, which were then split through.
(§3) Segments of ileum (1-1.5 cm) were suspended in a high potassium, no calcium Krebs buffer (NaCl 160.44 mM); KCl 45 mM; MgCl2 0.54 mM; NaH2PO4 0.89 mM; NaH2CO3 24.9 mM; Glucose 11.1 mM). Tracheal sections were suspended in normal Krebs buffer (NaCl […]; KCl 4.7 mM; CaCl2 2.5 mM; MgCl2 0.54 mM; NaH2PO4 0.89 mM; NaHCO3 24.9 mM; Glucose 11.1 mM). The solutions were maintained at 37° C. by a jacketed organ bath and gassed with 95% O2 and 5% CO2. The tissues were anchored by thread to the bottom of the organ bath and suspended from force displacement transducers under a resting tension of 1 g approx. in the case of ileum and 4 g approx. in the case of trachea. Isotonic contractions were recorded using a MacLab/4e system in conjunction with the Chart 3.3.1 software package. Surplus tissue was stored at 4° C. in Krebs buffer, for a maximum of 48 hours.
(§4) Four segments of tissue were suspended and observed concurrently. Contractions were initiated by the addition of 25 μl of 1M CaCl2 (a final concentration of 2.5 mM). The contractions stabilized with time, 10-15 min, and could be maintained for up to 45 min. from the addition of the CaCl2. The tracheal sections were allowed to develop spontaneous resting tension over a period of 30 mins.
(§5) Stock solutions of drug were prepared at 10^−3M in 50% (v/v) DMSO. These were diluted to give; 10^−4M in 5% (v/v) DMSO and 10^−5M in 0.5% (v/v) DMSO. In cases of poor solubility the 10^−3M stock was made up in higher concentrations of DMSO. Solvent ‘blank’ solutions were prepared containing 50%, 5% and 0.5% (v/v) DMSO (or as appropriate). A cumulative dose-response assay was carried out in the range 5×10^−8M to 10^−5M. A second cumulative dose-response assay was carried out using DMSO ‘blank’ solutions only.
(§6) Each drug was tested, in duplicate, on at least three different animals (n=3). The results were expressed as percentage inhibition of the CaCl2 induced contraction in the case of ideal tissue and percentage relaxation in the case of tracheal tissue, for each tissue, at each concentration of drug in DMSO. The effect of DMSO, for each tissue at each concentration, was subtracted from the effect of the drug in DMSO, to give the effect of the drug alone. A log dose vs. response curve was plotted for each drug using the mean and the standard error of the mean for the cumulated results.

[2] = test system: mast cells; assay: Histamine release assay (compound 48/80 stimulated mast cells); type: cell-based, Wistar rats; details: 2 × 10^−5 M, rat peritoneal mast cells; for inhibition at 20 µM: Rattus norvegicus, Mast cell, read-out: Percentage Inhibition of Histamine Release
Method: as §1
The buffered salt solution (BSS) was prepared in advance (NaCl 137 mM; KCl 2.7 mM; MgCl2 1.0 mM; CaCl2 0.5 mM, NaH2PO4 0.4 mM; Glucose 5.6 mM; HEPES 10 mM). This was dispensed into test tubes and heated to 37° C., each test tube contained 4.5 ml BSS. The solvent blank was supplemented with 0.5% (v/v) dimethyl sulphoxide (DMSO) or 0.5% (v/v) distilled water (dH2O). The two positive controls were supplemented with 0.5% (v/v) dH2O/2×10^−5M disodium cromoglycate (DSCG) and 0.5% (v/v) DMSO/2×10^−5M DSCG. The test compounds' incubation tubes contained 2×10^−5M test compound/0.5% (v/v) DMSO. The basal release, maximum release and total histamine content incubation tubes contained no additions.
Female Wistar rats (200-300 g) were killed in an atmosphere of saturated CO2. Pre-warmed BSS (10 ml) was injected i.p. and the abdomen was massaged for 3 min. The BSS, with suspended mast cells and other cells, was aspirated following a mid-line incision. The aspirate was centrifuged for 5 min at 400 g and the supernatant removed. The cells were re-suspended in BSS, at 4° C., and centrifuged as before the cells were washed in this manner a total of three times. Following the final wash, the pelleted cells were stored at 4° C., for use as soon as possible.
The cells were re-suspended in 7 ml BSS. From this, 0.5 ml aliquots were transferred to each of the incubation tubes. After 10 min at 37° C. with gentle agitation, Compound 48/80 was added to a final concentration of […], in order to stimulate histamine release. The cell stimulation was stopped after 2 min by the addition of 0.5 ml ice cold BSS, the incubation tubes were transferred to an ice bath. The cell suspensions were centrifuged for 5 min at 400 g. The “total histamine content” tube was placed at 100° C. for 2 min prior to centrifugation. The supernatants were retained for histamine assay.
To 2 ml of supernatant from each tube was added 0.4 ml of 1M NaOH and 0.1 ml oPT (1% (w/v) in methanol). This was incubated at room temperature for 4 min. The reaction was stopped by the addition of 0.2 ml of 3M HCl. The supernatant from each incubation tube was assayed in duplicate and run simultaneously with a standard curve in the range 0-1000 ng/ml. The presence of the fluorescent product of the reaction was measured using a Shimazu RF-1501 spectrofluorophotometer set at λex=360 nm, λem=450 nm.
Each drug was tested on at least five animals (n=5). The results were expressed as a percentage of maximum, compound 48/80 induced, histamine release in the solvent blank sample. Each drug was compared to DSCG on the same tissues. The basal histamine release in untreated cells was noted, expressed as a percentage of the total histamine content of the cells in suspension. […]

[3] = test system: ileum; assay: Smooth muscle effects: CaCl2 induced contractions of ileum; set-up: species or system Guinea pigs; details: for inhibition at 3 µM / inhibition at 10 µM / inhibition at 0.03 µM / inhibition at 0.1 µM / inhibition at 0.3 µM / inhibition at 1 µM: Cavia porcellus, read-out: Percentage Inhibition of CaCl2 Induced Contractions
Method: as §1, §2, §3, §4
as §5, with “A cumulative dose-response assay was carried out in the range 5×10^−8M to 10^−5M.” left out
as §6

[4] = 3 × 10^−6 M, guinea pig ileum, DMSO effect subtracted
[5] = 10^−5 M, guinea pig ileum, DMSO effect subtracted
[6] = 3 × 10^−7 M, guinea pig ileum, DMSO effect subtracted
[7] = 3 × 10^−8 M, guinea pig ileum, DMSO effect subtracted
[8] = 10^−6 M, guinea pig ileum, DMSO effect subtracted
[9] = 10^−7 M, guinea pig ileum, DMSO effect subtracted

## Cc1ccc(S(=O)(=O)N(C2Cc3ccccc3C2)C2CC(=O)c3ccccc32)cc1 (centres unmarked) [Compound 6C10, N-2-Indanyl-N-3-indan-1-onyl-p-toluenesulfonamide]
[1]; 3 × 10^−6 M
  inhibition at 3 µM: -0.75%
[1]; 10^−5 M
  inhibition at 10 µM: 0.5%
[2]
  inhibition at 20 µM: 51.1%

## C=CCN(C1CCc2ccccc21)C1CC(=O)c2ccccc21 (centres unmarked) [5C6 BR]
[2]
  Percentage Inhibition of Histamine Release: 78.84%
[3]; [4]
  inhibition at 3 µM: 8.72%
[3]; [5]
  inhibition at 10 µM: 31.6%

## C=CCN(C1Cc2ccccc2C1)C1CC(=O)c2ccccc21 (centres unmarked) [Compound 6C12, 3-(N-prop-2-enyl-N-2-indanylamino)-indan-1-one hydrochloride]
[2]; hydrochloride
  Percentage Inhibition of Histamine Release: 91.35%

## O=C1CC(N(Cc2ccccc2)C2Cc3ccccc3C2)c2ccccc21 (centres unmarked) [Compound 6C8, 3-(N-benzyl-N-2-indanylamino)-indan-1-one]
[2]
  inhibition at 20 µM: 88.6%
[3]
  inhibition at 0.03 µM: 1.97%
  inhibition at 0.1 µM: 2.94%
  inhibition at 0.3 µM: 3.26%
  inhibition at 1 µM: 4.69%
  inhibition at 3 µM: 11.3%
  inhibition at 10 µM: 31.1%

## O=C1CC(NC2CCc3ccccc32)c2ccccc21 (centres unmarked) [Compound 5C8, 3-(N-1-indanylamino) -indan-1-one. Hydrochloride]
[2]; hydrochloride
  Percentage Inhibition of Histamine Release: 14.33%

## C=CCN(C1CCc2ccccc21)C1CC(=O)c2ccccc21 (centres unmarked) [Compound 5C11, 3-(N-prop-2-enyl-N-1-indanylamino)-indan-1-one hydrochloride]
[2]; hydrochloride
  Percentage Inhibition of Histamine Release: 90.27%

## CN(C1CCc2ccccc21)C1CC(=O)c2ccccc21 (centres unmarked) [Compound 5C5, 3-(N-methyl-N-1-indanylamino)-indan-1-one]
[2]
  inhibition at 20 µM: 58.7%
[3]; [4]
  inhibition at 3 µM: 3.56%
[3]; [6]
  inhibition at 0.3 µM: 0.43%
[3]; [7]
  inhibition at 0.03 µM: -0.26%
[3]; [5]
  inhibition at 10 µM: 10.5%
[3]; [8]
  inhibition at 1 µM: 1.56%
[3]; [9]
  inhibition at 0.1 µM: 0.28%

## O=C1CC(NC2Cc3ccccc3C2)c2ccccc21 (centres unmarked) [Compound 6C4, 3-(N-2-indanylamino)-indan-1-one]
[2]
  Percentage Inhibition of Histamine Release: 14.92%
[3]; [4]
  Percentage Inhibition of CaCl2 Induced Contractions: 17.11%
[3]; [6]
  Percentage Inhibition of CaCl2 Induced Contractions: 4.63%
[3]; [7]
  Percentage Inhibition of CaCl2 Induced Contractions: 2.16%
[3]; [5]
  Percentage Inhibition of CaCl2 Induced Contractions: 33.46%
[3]; [8]
  Percentage Inhibition of CaCl2 Induced Contractions: 8.84%
[3]; [9]
  Percentage Inhibition of CaCl2 Induced Contractions: 3.02%

## Cc1ccc(S(=O)(=O)N(C2CCc3ccccc32)C2CC(=O)c3ccccc32)cc1 (centres unmarked) [Compound 5C10, N-1-Indanyl-N-3-indan-1-onyl-p-toluenesulfonamide]
[2]
  inhibition at 20 µM: 40.8%

## OC1CC(NC2CCc3ccccc32)c2ccccc21 (centres unmarked) [Compound 5C4, 3-(N-1-indanylamino)indan-1-ol]
[2]
  inhibition at 20 µM: 5.68%
[3]; [4]
  inhibition at 3 µM: 5.08%
[3]; [6]
  inhibition at 0.3 µM: -0.99%
[3]; [7]
  inhibition at 0.03 µM: -0.86%
[3]; [5]
  inhibition at 10 µM: 19.1%
[3]; [8]
  inhibition at 1 µM: 1.15%
[3]; [9]
  inhibition at 0.1 µM: -0.86%

## O=C1CC(N(Cc2ccccc2)C2CCc3ccccc32)c2ccccc21 (centres unmarked) [Compound 5C7, 3-(N-benzyl-N-1-indanylamino)-indan-1-one]
[2]
  inhibition at 20 µM: 24.1%
[3]
  inhibition at 0.03 µM: 0.16%
  inhibition at 0.1 µM: -0.44%
  inhibition at 0.3 µM: -0.36%
  inhibition at 1 µM: -1.72%
  inhibition at 3 µM: 0%
  inhibition at 10 µM: 2.06%

## O=C1CC(NC2Cc3ccccc3C2)c2ccccc21 (centres unmarked) [Compound 6C9, 3-(N-2-indanylamino)indan-1-one. Hydrochloride]
[2]; hydrochloride
  Percentage Inhibition of Histamine Release: 43.60%
[3]; 3 × 10^−6 M, guinea pig ileum, DMSO effect subtracted, Hydrochloride
  Percentage Inhibition of CaCl2 Induced Contractions: −0.86%
[3]; 3 × 10^−7 M, guinea pig ileum, DMSO effect subtracted, Hydrochloride
  Percentage Inhibition of CaCl2 Induced Contractions: −1.76%
[3]; 3 × 10^−8 M, guinea pig ileum, DMSO effect subtracted, Hydrochloride
  Percentage Inhibition of CaCl2 Induced Contractions: 0.31%
[3]; 10^−5 M, guinea pig ileum, DMSO effect subtracted, Hydrochloride
  Percentage Inhibition of CaCl2 Induced Contractions: 1.58%
[3]; 10^−6 M, guinea pig ileum, DMSO effect subtracted, Hydrochloride
  Percentage Inhibition of CaCl2 Induced Contractions: −2.94%
[3]; 10^−7 M, guinea pig ileum, DMSO effect subtracted, Hydrochloride
  Percentage Inhibition of CaCl2 Induced Contractions: 0.61%

## O=C1CC(NC2CCc3ccccc32)c2ccccc21 (centres unmarked) [Compound 5C3, 3-(N-1-indanylamino)-indan-1-one]
[2]
  Percentage Inhibition of Histamine Release: 32.77%
[3]; [4]
  inhibition at 3 µM: 15.1%
[3]; [6]
  inhibition at 0.3 µM: 3.78%
[3]; [7]
  inhibition at 0.03 µM: 0.53%
[3]; [5]
  inhibition at 10 µM: 30%
[3]; [8]
  inhibition at 1 µM: 7.21%
[3]; [9]
  inhibition at 0.1 µM: 2.61%
